Like-named read-outs stand apart in the source and are kept apart here. Where no end group is shown, it is not given here.
Tests used:
[1] = target: CaM1-80 (N-domain of CaM) (Paramecium tetraurelia, UniProt P07463); assay: Equilibrium Ca2+ titration of CaM1-80 with Nav1.2IQp; type: biochemical; conditions: 6 μM CaM, 9 μM Nav1.2IQp, 22 °C; phenylalanine fluorescence
[2] = target: T1, CaM1-148 (full-length CaM) (Paramecium tetraurelia, UniProt P07463); assay: Equilibrium Ca2+ titration of CaM1-148 with Nav1.2IQp; type: biochemical
[3] = target: T1, CaM1-148 (full-length CaM); assay: Ca2+ titration of apo CaM1-148:Nav1.2IQp complex monitored by 15N/1H-HSQC; type: biochemical; conditions: 15N/1H-HSQC titration, pH 6.8
[4] = test system: CaM; conditions: apo CaM compared with (Ca^2+)4-CaM
[5] = target: T1, CaM1-148 (full-length CaM); assay: Fluorescence anisotropy titration of Fl-Nav1.2IQp with CaM1-148; type: binding
[6] = target: T2, CaM76-148 (C-domain of CaM) (Paramecium tetraurelia, UniProt P07463); conditions: read-out: Kd, Ca^2+-saturated CaM76-148 binding, stoichiometric binding, only an upper limit for Kd, fluorescence anisotropy, pH 7.4, 22 °C
[7] = target: T2, CaM76-148 (C-domain of CaM); assay: biochemical
[8] = test system: (Ca^2+)4-CaM (CaM1-148); type: binding, Paramecium; conditions: Nav1.2_1913-1938 in 6-fold excess, fluorescence anisotropy (Figure S6A)
[9] = test system: CaM; conditions: ref Mori et al., 2000; cited from earlier work

Sequence: KRKQEEVSAIVIQRAYRRYLLKQKVKK [Nav1.2IQp]
- effect on Ca^2+ binding to sites I and II of CaM1-80 [1]: little effect
- effect on Ca^2+ binding to sites I and II of CaM1-148 ([2]; 6 μM CaM, 9 μM Nav1.2IQp, 22 °C, phenylalanine fluorescence): little effect
- lowering of overall Ca^2+-binding affinity of CaM (free energy) ([2]; overall, CaM, with versus without Nav1.2IQp (Figure 2D)): 4.03 kcal/mol
- Ca^2+-binding affinity of sites I and II relative to sites III and IV of CaM1-148 bound to Nav1.2IQp [3]: slightly more favorable
- relative affinity for apo CaM versus (Ca^2+)4-CaM [4]: higher affinity for apo CaM than (Ca^2+)4-CaM

Sequence: KRKQEEVSAIVIQRAYRRYLLKQKVKK [Fl-Nav1.2IQp]
- Kd [5]: ≤ 0.01 µM
- Kd [6]: ≤ 0.01 µM
- Kd [7]: ≤ 0.01 µM

Sequence: QRAYRRYLLKQKVKKVSSIYKKDKGK [Nav1.2BAA-1913-1938]
- simultaneous binding of Nav1.2IQp and Nav1.2_1913-1938 to (Ca^2+)4-CaM [8]: no evidence for simultaneous binding
- binding to (Ca^2+)4-CaM [9]: binds to (Ca^2+)4-CaM
